Data from patent US20040175691A1, “Use of the KCNQ2 and KCNQ3 genes for the discovery of agents useful in the treatment of neurological disorders” (priority 1998, published 2004).

Assays:
Type in all cases: cell-based
eag1 = target: T1, eag1 (Rattus norvegicus, UniProt Q63472); assay: Blockade of cloned eag1 channel in oocytes; details: mean±s.e.m., blockade incomplete
T1 construct: expressed in transfected cells; host or cells: oocytes (Xenopus)
T1 sequence (Q63472 1-962): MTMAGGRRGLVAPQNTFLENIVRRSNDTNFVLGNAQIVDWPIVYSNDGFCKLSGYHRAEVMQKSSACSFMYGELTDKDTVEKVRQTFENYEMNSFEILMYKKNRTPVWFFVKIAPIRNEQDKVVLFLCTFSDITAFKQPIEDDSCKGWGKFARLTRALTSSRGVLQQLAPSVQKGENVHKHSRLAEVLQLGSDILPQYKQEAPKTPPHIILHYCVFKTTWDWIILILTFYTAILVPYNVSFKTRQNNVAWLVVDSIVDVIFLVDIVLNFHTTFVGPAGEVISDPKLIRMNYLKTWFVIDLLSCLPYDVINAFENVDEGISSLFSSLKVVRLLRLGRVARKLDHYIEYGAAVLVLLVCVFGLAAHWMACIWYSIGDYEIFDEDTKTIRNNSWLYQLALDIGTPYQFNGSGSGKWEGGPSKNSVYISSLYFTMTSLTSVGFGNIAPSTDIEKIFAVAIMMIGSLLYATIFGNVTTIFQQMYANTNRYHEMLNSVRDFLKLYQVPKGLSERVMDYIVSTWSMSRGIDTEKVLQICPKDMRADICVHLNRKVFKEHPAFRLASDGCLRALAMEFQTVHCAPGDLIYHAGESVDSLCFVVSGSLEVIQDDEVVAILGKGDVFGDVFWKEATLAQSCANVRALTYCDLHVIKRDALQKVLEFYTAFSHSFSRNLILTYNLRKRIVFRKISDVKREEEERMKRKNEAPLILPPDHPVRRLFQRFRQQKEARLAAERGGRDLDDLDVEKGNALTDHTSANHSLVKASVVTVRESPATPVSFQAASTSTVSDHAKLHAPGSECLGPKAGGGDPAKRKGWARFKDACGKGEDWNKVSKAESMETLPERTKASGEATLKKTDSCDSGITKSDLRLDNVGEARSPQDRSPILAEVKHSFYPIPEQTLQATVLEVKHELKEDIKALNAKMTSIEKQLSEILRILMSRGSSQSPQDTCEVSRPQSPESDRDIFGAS

erg3 = target: T2, erg3 (Rattus norvegicus, UniProt O54852); assay: Blockade of cloned erg3 channel in oocytes; details: mean±s.e.m.
T2 construct: expressed in transfected cells; host or cells: oocytes (Xenopus)
T2 sequence (O54852 1-1195): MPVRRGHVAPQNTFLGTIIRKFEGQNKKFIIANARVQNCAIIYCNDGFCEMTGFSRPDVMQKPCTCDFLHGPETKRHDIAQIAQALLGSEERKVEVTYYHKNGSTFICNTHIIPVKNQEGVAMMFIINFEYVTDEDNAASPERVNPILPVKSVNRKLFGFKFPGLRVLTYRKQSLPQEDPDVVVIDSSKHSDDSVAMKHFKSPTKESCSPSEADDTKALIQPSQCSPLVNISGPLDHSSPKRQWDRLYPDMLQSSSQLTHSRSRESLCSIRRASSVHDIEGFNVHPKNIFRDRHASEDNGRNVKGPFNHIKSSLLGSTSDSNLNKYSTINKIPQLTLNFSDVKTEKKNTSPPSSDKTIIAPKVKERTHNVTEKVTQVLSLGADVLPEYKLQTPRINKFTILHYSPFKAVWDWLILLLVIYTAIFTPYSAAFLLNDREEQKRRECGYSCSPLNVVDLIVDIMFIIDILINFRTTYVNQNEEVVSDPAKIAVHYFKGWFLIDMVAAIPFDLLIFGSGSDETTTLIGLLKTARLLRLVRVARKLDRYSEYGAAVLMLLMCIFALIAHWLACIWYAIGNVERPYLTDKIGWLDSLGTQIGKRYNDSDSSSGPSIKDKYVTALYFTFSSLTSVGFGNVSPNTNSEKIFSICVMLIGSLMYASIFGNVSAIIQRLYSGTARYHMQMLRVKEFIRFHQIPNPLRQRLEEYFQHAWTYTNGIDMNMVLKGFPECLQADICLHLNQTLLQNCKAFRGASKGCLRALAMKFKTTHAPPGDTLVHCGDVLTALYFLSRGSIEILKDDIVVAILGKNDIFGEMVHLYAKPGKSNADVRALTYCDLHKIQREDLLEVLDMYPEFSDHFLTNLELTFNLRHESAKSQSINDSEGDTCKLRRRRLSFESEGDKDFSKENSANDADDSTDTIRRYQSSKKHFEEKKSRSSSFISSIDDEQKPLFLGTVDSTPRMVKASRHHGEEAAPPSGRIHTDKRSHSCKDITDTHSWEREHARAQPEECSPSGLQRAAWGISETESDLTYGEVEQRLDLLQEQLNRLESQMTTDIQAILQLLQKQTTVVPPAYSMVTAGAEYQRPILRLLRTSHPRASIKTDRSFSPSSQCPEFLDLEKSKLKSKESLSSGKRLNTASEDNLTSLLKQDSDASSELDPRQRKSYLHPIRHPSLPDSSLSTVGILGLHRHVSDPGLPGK

Kv4.3 = target: T3, Kv4.3 (Homo sapiens, UniProt Q9UK17); assay: Blockade of cloned Kv4.3 channel in oocytes; details: mean±s.e.m.
T3 construct: expressed in transfected cells; host or cells: oocytes (Xenopus)
T3 sequence (Q9UK17 1-655): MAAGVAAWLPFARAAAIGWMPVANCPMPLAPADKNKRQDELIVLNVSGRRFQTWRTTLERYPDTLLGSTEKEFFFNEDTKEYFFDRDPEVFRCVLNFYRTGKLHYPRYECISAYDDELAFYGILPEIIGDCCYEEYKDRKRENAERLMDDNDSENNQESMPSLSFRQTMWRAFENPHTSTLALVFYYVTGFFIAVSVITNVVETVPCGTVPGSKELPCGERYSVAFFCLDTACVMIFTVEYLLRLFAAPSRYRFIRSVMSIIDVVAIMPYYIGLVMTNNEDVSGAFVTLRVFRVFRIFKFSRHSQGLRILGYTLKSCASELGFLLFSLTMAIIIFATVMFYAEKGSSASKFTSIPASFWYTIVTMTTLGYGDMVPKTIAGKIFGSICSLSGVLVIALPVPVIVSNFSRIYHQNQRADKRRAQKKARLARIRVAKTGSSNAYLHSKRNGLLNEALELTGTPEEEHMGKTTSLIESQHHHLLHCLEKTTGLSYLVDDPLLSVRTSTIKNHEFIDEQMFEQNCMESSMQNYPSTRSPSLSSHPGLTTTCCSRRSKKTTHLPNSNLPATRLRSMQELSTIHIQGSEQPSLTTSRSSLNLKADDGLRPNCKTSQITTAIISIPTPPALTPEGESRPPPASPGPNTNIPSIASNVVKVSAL

IC50 (eag1) [µM]	IC50 (erg3) [µM]	IC50 (Kv4.3) [µM]	Structure (SMILES)
31 ± 3	85 ± 5	86 ± 14	O=C1N(c2ccccc2)c2ccccc2C1(Cc1ccncc1)Cc1ccncc1 [Linopirdine, 3,3-bis(4-pyridinylmethyl)-1-phenylindolin-2-one]
49 ± 6	> 100	43 ± 7	O=C1c2ccccc2C(Cc2ccncc2)(Cc2ccncc2)c2ccccc21 [XE991, 10,10-bis(4-pyridinylmethyl)-9(10H)-anthracenone]
